The target in experiment [1] is T1, NAMPT (Homo sapiens, UniProt P43490). In words: Time-Resolved Fluorescence Resonance Energy Transfer (TR-FRET) Binding Assay of NAMPT. The conditions noted are these: 6.8 nM NAMPT, 200 nM probe, equilibrated 3 hours, no substrates. A digest of the protocol: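 IC50s come from four-parameter logistic fits of control-normalized Em520/Em495 TR-FRET ratios (Ex 337 nm) against compound concentration. Before reading, enzyme, probe, antibody and compound equilibrated for 3 h at room temperature.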
T1 sequence (P43490 whole entry): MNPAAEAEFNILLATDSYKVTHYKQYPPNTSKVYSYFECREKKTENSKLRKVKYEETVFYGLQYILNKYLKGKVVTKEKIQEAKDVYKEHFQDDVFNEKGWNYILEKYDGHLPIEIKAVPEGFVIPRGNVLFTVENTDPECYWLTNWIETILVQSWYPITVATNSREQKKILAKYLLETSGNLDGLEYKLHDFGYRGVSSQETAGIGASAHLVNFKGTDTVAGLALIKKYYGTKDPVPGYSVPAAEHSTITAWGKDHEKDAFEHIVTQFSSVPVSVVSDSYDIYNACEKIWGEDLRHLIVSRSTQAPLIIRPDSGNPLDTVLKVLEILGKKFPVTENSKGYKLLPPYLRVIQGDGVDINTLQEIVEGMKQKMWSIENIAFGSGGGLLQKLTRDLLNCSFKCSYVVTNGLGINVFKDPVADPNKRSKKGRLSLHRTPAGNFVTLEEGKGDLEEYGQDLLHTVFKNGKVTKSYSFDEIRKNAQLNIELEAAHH

In experiment [2] the target is T1, NAMPT. The experiment is described as follows: TR-FRET Binding Assay of NAMPT with PRPP. The conditions noted are these: 2 nM NAMPT, 2 nM probe, 200 µM PRPP and 2.5 mM ATP, equilibrated 16 hours. The method, then:
Time-Resolved Fluorescence Resonance Energy Transfer (TR-FRET) Binding Assay of NAMPT with PRPP
Compound handling and data processing were identical to the assay in the absence of substrates (above). Final concentrations were 1× assay buffer, 2% DMSO, 2 nM NAMPT, 2 nM probe, 1 nM Tb-anti-His antibody (Invitrogen #PV5895), 200 µM PRPP and 2.5 mM ATP. Reactions were equilibrated for 16 hours prior to measurement to allow for potential enzymatic modification of test compounds.

For another experiment, the system named is PC3 cells. In words: NAMPT Cell Proliferation Assay (Cell Titer Glo). It is filed as cell-based. The conditions noted are these: Homo sapiens, PC-3, 120 h, incubated 5 days, cell viability. A digest of the protocol:
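Viability measured by Cell Titer Glo luminescence after 5-day exposure of attached PC3 cells to compound, dosed as 10-fold serial dilutions ([…]) in RPMI/10% FBS at 37 °C and 5% CO2. Percent inhibition fitted to sigmoidal dose-response curves for IC50.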

Turning to `CC[C@H](C)C(=O)N1CC(Oc2ccc(NC(=O)N3CC(c4cccnc4)C3)cc2)C1` [Example 1, N-[4-({1-[(2S)-2-methylbutanoyl]azetidin-3-yl}oxy)phenyl]-3-(pyridin-3-yl)azetidine-1-carboxamide], the IC50 came out at 24.9 nM at NAMPT [1], 0.873 nM at NAMPT [2] and 11.7 nM in the experiment on PC3 cells.
For `O=C(CC1CCOCC1)N1CCC(Oc2ccc(NC(=O)N3CC(c4cccnc4)C3)cc2)CC1` [Example 2, 3-(pyridin-3-yl)-N-(4-{[1-(tetrahydro-2H-pyran-4-ylacetyl)piperidin-4-yl]oxy}phenyl)azetidine-1-carboxamide] the same measures were 125 nM, 0.37 nM and 34.9 nM.
In the same order, the values of `O=C(CC1CCOCC1)N1CCC(Oc2ccc(NC(=O)N3CC(c4cncc(F)c4)C3)cc2)CC1` [Example 3, 3-(5-fluoropyridin-3-yl)-N-(4-{[1-(tetrahydro-2H-pyran-4-ylacetyl)piperidin-4-yl]oxy}phenyl)azetidine-1-carboxamide] are 1220 nM, 7.64 nM and 4680 nM.
For `CC1CC1C(=O)N1CC(c2ccc(NC(=O)N3CC(c4cccnc4)C3)cc2)C1` (stereo not shown) [Example 199, N-(4-{1-[(2-methylcyclopropyl)carbonyl]azetidin-3-yl}phenyl)-3-(pyridin-3-yl)azetidine-1-carboxamide], the IC50 at NAMPT [1] worked out at 128 nM; at NAMPT [2] it was 0.356 nM.
For `CC(C)CCC(=O)N1CC(c2ccc(NC(=O)N3CC(c4cccnc4)C3)cc2)C1` [Example 201, N-{4-[1-(4-methylpentanoyl)azetidin-3-yl]phenyl}-3-(pyridin-3-yl)azetidine-1-carboxamide] the same measures were 43.2 nM and 0.313 nM.
With `CCOCCC(=O)N1CC(c2ccc(NC(=O)N3CC(c4cccnc4)C3)cc2)C1` [Example 203, N-{4-[1-(3-ethoxypropanoyl)azetidin-3-yl]phenyl}-3-(pyridin-3-yl)azetidine-1-carboxamide], the half-maximal inhibitory concentration (IC50) on NAMPT [1] was 250 nM; on NAMPT [2], 0.427 nM.
Regarding `CC(C)(C)CC(=O)N1CC(c2ccc(NC(=O)N3CC(c4cccnc4)C3)cc2)C1` [Example 205, N-{4-[1-(3,3-dimethylbutanoyl)azetidin-3-yl]phenyl}-3-(pyridin-3-yl)azetidine-1-carboxamide], the IC50 is 42.6 nM at NAMPT [1] and 0.242 nM at NAMPT [2].
In the same order, the values of `CCOCC(=O)N1CC(c2ccc(NC(=O)N3CC(c4cccnc4)C3)cc2)C1` [Example 207, N-{4-[1-(ethoxyacetyl)azetidin-3-yl]phenyl}-3-(pyridin-3-yl)azetidine-1-carboxamide] are 451 nM and 0.37 nM.
For `CC(=O)N[C@@H](CC(C)C)C(=O)N1CC(c2ccc(NC(=O)N3CC(c4cccnc4)C3)cc2)C1` [Example 209, N-{4-[1-(N-acetyl-L-leucyl)azetidin-3-yl]phenyl}-3-(pyridin-3-yl)azetidine-1-carboxamide], the IC50 at NAMPT [1] turned out to be 24 nM; at NAMPT [2], 0.694 nM.
In the same order, the values of `O=C(Nc1ccc(C2CN(C(=O)C3CCCCC3)C2)cc1)N1CC(c2cccnc2)C1` [Example 211, N-{4-[1-(cyclohexylcarbonyl)azetidin-3-yl]phenyl}-3-(pyridin-3-yl)azetidine-1-carboxamide] are 55.9 nM and 0.341 nM.
Regarding `O=C(CCC(F)(F)F)N1CC(c2ccc(NC(=O)N3CC(c4cccnc4)C3)cc2)C1` [Example 213, 3-(pyridin-3-yl)-N-{4-[1-(4,4,4-trifluorobutanoyl)azetidin-3-yl]phenyl}azetidine-1-carboxamide], the figures for the IC50 on NAMPT [1] and at NAMPT [2] were 87.3 nM and 0.352 nM, respectively.
In the same order, the values of `CC1(C(=O)N2CC(c3ccc(NC(=O)N4CC(c5cccnc5)C4)cc3)C2)CCCCC1` [Example 215, N-(4-{1-[(1-methylcyclohexyl)carbonyl]azetidin-3-yl}phenyl)-3-(pyridin-3-yl)azetidine-1-carboxamide] are 27.4 nM and 0.294 nM.
For `CC(=O)N1CC(c2ccc(NC(=O)N3CC(c4cccnc4)C3)cc2)C1` [Example 217, N-[4-(1-acetylazetidin-3-yl)phenyl]-3-(pyridin-3-yl)azetidine-1-carboxamide] the same measures were 278 nM and 0.32 nM.
In the same order, the values of `O=C(Nc1ccc(C2CN(C(=O)c3ccsc3)C2)cc1)N1CC(c2cccnc2)C1` [Example 219, 3-(pyridin-3-yl)-N-{4-[1-(thiophen-3-ylcarbonyl)azetidin-3-yl]phenyl}azetidine-1-carboxamide] are 19.4 nM and 0.29 nM.
For `O=C(CN1CCOCC1)N1CC(c2ccc(NC(=O)N3CC(c4cccnc4)C3)cc2)C1` [Example 221, N-{4-[1-(morpholin-4-ylacetyl)azetidin-3-yl]phenyl}-3-(pyridin-3-yl)azetidine-1-carboxamide], the IC50 on NAMPT [1] is 152 nM; on NAMPT [2] it was 0.319 nM.
Consider `Cc1ccc(C(=O)N2CC(c3ccc(NC(=O)N4CC(c5cccnc5)C4)cc3)C2)s1` [Example 223, N-(4-{1-[(5-methylthiophen-2-yl)carbonyl]azetidin-3-yl}phenyl)-3-(pyridin-3-yl)azetidine-1-carboxamide], for which the IC50 on NAMPT [1] is 21.6 nM; at NAMPT [2], 0.391 nM.
For `Cn1cccc1C(=O)N1CC(c2ccc(NC(=O)N3CC(c4cccnc4)C3)cc2)C1` [Example 225, N-(4-{1-[(1-methyl-1H-pyrrol-2-yl)carbonyl]azetidin-3-yl}phenyl)-3-(pyridin-3-yl)azetidine-1-carboxamide] the same measures were 14 nM and 0.268 nM.
For `CC1(C(=O)N2CC(c3ccc(NC(=O)N4CC(c5cccnc5)C4)cc3)C2)CC1` [Example 227, N-(4-{1-[(1-methylcyclopropyl)carbonyl]azetidin-3-yl}phenyl)-3-(pyridin-3-yl)azetidine-1-carboxamide] the same measures were 69.2 nM and 0.294 nM.
`O=C(Nc1ccc(C2CN(C(=O)c3nccs3)C2)cc1)N1CC(c2cccnc2)C1` [Example 228, 3-(pyridin-3-yl)-N-{4-[1-(1,3-thiazol-2-ylcarbonyl)azetidin-3-yl]phenyl}azetidine-1-carboxamide]: the IC50 is 19.6 nM at NAMPT [1] and 0.31 nM at NAMPT [2].
In the same order, the values of `O=C(CC1CCCC1)N1CC(c2ccc(NC(=O)N3CC(c4cccnc4)C3)cc2)C1` [Example 229, N-{4-[1-(cyclopentylacetyl)azetidin-3-yl]phenyl}-3-(pyridin-3-yl)azetidine-1-carboxamide] are 40.3 nM and 0.314 nM.
In the same order, the values of `CC(C)C(C)C(=O)N1CC(c2ccc(NC(=O)N3CC(c4cccnc4)C3)cc2)C1` (stereo not shown) [Example 230, N-{4-[1-(2,3-dimethylbutanoyl)azetidin-3-yl]phenyl}-3-(pyridin-3-yl)azetidine-1-carboxamide] are 38.8 nM and 0.305 nM.
As to `O=C(Nc1ccc(C2CCN(CC3CCCCC3)CC2)cc1)N1CC(c2cccnc2)C1` [Example 232, N-{4-[1-(cyclohexylmethyl)piperidin-4-yl]phenyl}-3-(pyridin-3-yl)azetidine-1-carboxamide], the IC50 at NAMPT [1] is 352 nM; at NAMPT [2], 0.181 nM.
With `CCCC(C)CN1CCC(c2ccc(NC(=O)N3CC(c4cccnc4)C3)cc2)CC1` (stereo not shown) [Example 234, N-{4-[1-(2-methylpentyl)piperidin-4-yl]phenyl}-3-(pyridin-3-yl)azetidine-1-carboxamide], the figures for the IC50 on NAMPT [1] and on NAMPT [2] were 760 nM and 0.529 nM, respectively.
For `CC(C)CCN1CCC(c2ccc(NC(=O)N3CC(c4cccnc4)C3)cc2)CC1` [Example 236, N-{4-[1-(3-methylbutyl)piperidin-4-yl]phenyl}-3-(pyridin-3-yl)azetidine-1-carboxamide] the same measures were 667 nM and 0.21 nM.
In the case of `CCCCN1CCC(c2ccc(NC(=O)N3CC(c4cccnc4)C3)cc2)CC1` [Example 240, N-[4-(1-butylpiperidin-4-yl)phenyl]-3-(pyridin-3-yl)azetidine-1-carboxamide], the IC50 at NAMPT [1] is 603 nM; on NAMPT [2], 0.466 nM.
For `O=C(Nc1ccc(C2CCN(CCC3CC3)CC2)cc1)N1CC(c2cccnc2)C1` [Example 242, N-{4-[1-(2-cyclopropylethyl)piperidin-4-yl]phenyl}-3-(pyridin-3-yl)azetidine-1-carboxamide] the same measures were 374 nM and 0.225 nM.
In the same order, the values of `CCC(C)(C)CN1CCC(c2ccc(NC(=O)N3CC(c4cccnc4)C3)cc2)CC1` [Example 244, N-{4-[1-(2,2-dimethylbutyl)piperidin-4-yl]phenyl}-3-(pyridin-3-yl)azetidine-1-carboxamide] are 1170 nM and 0.516 nM.
`CC(C)(C)CN1CC(c2ccc(NC(=O)N3CC(c4cccnc4)C3)cc2)C1` [Example 254, N-{4-[1-(2,2-dimethylpropyl)azetidin-3-yl]phenyl}-3-(pyridin-3-yl)azetidine-1-carboxamide]: the IC50 was determined as 246 nM on NAMPT [1] and 0.174 nM at NAMPT [2].
For `CCC(C)(C)CN1CC(c2ccc(NC(=O)N3CC(c4cccnc4)C3)cc2)C1` [Example 257, N-{4-[1-(2,2-dimethylbutyl)azetidin-3-yl]phenyl}-3-(pyridin-3-yl)azetidine-1-carboxamide] the same measures were 598 nM and 0.223 nM.
